US12263202B2, “Method of treating melanocortin-4 receptor pathway-associated disorders” (CHARITÉ—UNIVERSITÄTSMEDIZIN BERLIN, priority 2015, dated 2025)
Entries after “also recorded” stand apart in the source; their conditions may differ.

Tests used:
wild-type mice = test: Food intake over four hours in wild-type mice; assay type: in vivo
Method: (§1) To determine this, wild-type and db/db mice were exposed to vehicle or varying concentrations of setmelanotide (0.0554 mpk; 0.137 mpk, 0.344 mpk, or 1.37 mpk), and their food intake was measured over four hours.

[1] = cited from earlier work
[2] = tested on: wild-type obese human patients; test: Weight loss in wild-type obese human patients; assay type: in vivo; conditions: 0.01 mg/kg or 0.015 mg/kg twice daily (BID); after 2 or 4 weeks; placebo-subtracted
Method: The effect of MC4R agonist setmelanotide on wild-type obese human patients was assessed. The patients were treated with placebo or setmelanotide twice daily (BID) at 0.01 mg/kg or 0.015 mg/kg. There were 9 patients in each treatment group (6 with setmelanotide and 3 with placebo).
The amount of weight loss was determined after 2 weeks or after 4 weeks of treatment. […] The weight loss among the wild-type obese patients was about 0.6 to about 0.9 kg per week.

Magel2-null mice = test: Food intake and energy expenditure in Magel2-null mice (mouse model of PWS); assay type: in vivo
Method: (§2) Experiments were performed to determine the effect of a MC4R agonist, setmelanotide, on Magel2-null mice. Setmelanotide was evaluated in wild type and Magel2-null mice. Adult mice (N=6 per group) were acclimated to metabolic chambers, and food intake and energy expenditure (kcal/h) were measured over time. Mice were 8 weeks old. […] Vehicle and drug (setmelanotide) were administered intraperitoneally (i.p.) (n=6 for each treatment). A 0.1 mg/kg dose of setmelanotide was injected i.p. before the start of the dark cycle in the mice.
(§3) Food intake (cumulative in grams (g)) through 3 hours post dose and overnight cumulative food intake were assessed. Energy expenditure was also measured after dosing. Post-setmelanotide treatment data were compared to the data from post-vehicle injections in the same groups of mice. Statistical analysis was by two-way ANOVA followed by Bonferroni post-testing.

wildtype mice = test: Food intake in wild type mice (comparison to Magel2-null); assay type: in vivo; conditions: 0.1 mg/kg i.p.
Method: as §2, §3

db/db mice = test: Food intake over four hours in db/db mice (leptin receptor deficient); assay type: in vivo
Method: as §1

POMC deficient patient = test: Phase 2 open label study of setmelanotide in an adult POMC deficient patient with severe obesity and hyperphagia; assay type: in vivo, human
Method: See, e.g., Chen et al. J. Clin. Endocrinol. Metab. 2015; 100:1639-45. The study was an investigator initiated, open label, phase 2, non-randomized proof of concept study (EudraCT No. 2014-002392-28; Clinical Trials Identifier No. NCT02507492) with three parts: pre-study evaluation, main study (about 13 weeks) and after a short interval off drug, a long-term extension phase.
In the pre-study period, baseline examinations were performed, including analysis of metabolic parameters, including OGTT, GnRH test, fasting blood glucose, Leptin measurements as well as bioelectrical impedance analysis (BIA, according standard protocols; Data-in, Nutriguard-MS), indirect calorimetry (CareFusion, VMAX® Encore system), heart rate and blood pressure monitoring (after the first injection and after each dosage escalation blood pressure was measured regularly over 12 hours; in addition, blood was measured at home 3 times daily) as well as a dermatological and psychological examination. All parameters were in the normal range with the exception of elevated fasting insulin reflecting insulin resistance. These measurements were repeated after 13 and 26 weeks of treatment. Baseline examination also included physical examination, e.g., measurement of height and body-weight. Setmelanotide treatment was started at a dose of 0.25 mg subcutaneously (s.c.) once daily. The dose escalated every 1-2 weeks after careful assessment of safety and weight loss. After the first injection and after each dosage escalation, blood pressure was measured regularly over 12 hours. In addition, blood was measured 3 times daily. Setmelanotide injections were given once a day.
After about 90 days of treatment (main study), assessments were repeated, including assessments of metabolic parameters, e.g., blood tests, skin examination, and psychological evaluation. Setmelanotide treatment was ended, and a rapid and large weight gain off-treatment was observed. Subsequently, setmelanotide treatment was continued for another 3 months (extension phase) along with continued assessments (of metabolic parameters). The hunger score was evaluated using a Likert hunger scale from 0 to 10 points (0=no hunger; 10=severe hunger). See, e.g., Sibilia. Psychologicol Topics 19 (2010), 2, 341-354.
Bioelectric Impedance Analysis (BIA) and indirect calorimetric analysis was performed according standard protocols, e.g., as described in Barak et al. JPEN J. Parenter. Enteral Nutr. 27.1(2003):43-6; and Compher et al. J. Am. Diet Assoc.
Statistical analysis: The values of systolic and diastolic blood pressure and heart rate were analyzed with a […].

[3] = higher doses (0.137 mpk, 0.344 mpk, and 1.37 mpk), vs vehicle-treated mice
[4] = after 26 weeks of treatment, listed as MC4R agonist
[5] = after a 13-week treatment vs baseline
[6] = bioelectrical impedance analysis
[7] = off drug after 13 weeks of treatment (three weeks off drug)

## CC(=O)N[C@@H](CCCNC(=N)N)C(=O)N[C@H]1CSSC[C@@H](C(N)=O)NC(=O)[C@H](Cc2c[nH]c3ccccc23)NC(=O)[C@H](CCCNC(=N)N)NC(=O)[C@@H](Cc2ccccc2)NC(=O)[C@H](Cc2cnc[nH]2)NC(=O)[C@@H](C)NC1=O [setmelanotide, Ac-Arg-c(Cys-D-Ala-His-D-Phe-Arg-Trp-Cys)-NH2]
wild-type mice; 0.0544 mpk dose, 4 hour timepoint
  food intake vs vehicle treated mice: identical food intake
wild-type mice; 0.0544 mpk dose, at 1 and 2 hours
  food intake: Decreased food intake
wild-type mice; [3]
  food intake: significantly decreased food intake
[1]; clinical trials (Chen et al. 2015)
  effect on blood pressure: not been shown to adversely affect blood pressure
[1]; in vivo
  effects on sexual activity: only infrequent
  signs of increased blood pressure: little, if any
  tolerability: generally well-tolerated
[2]
  weight loss: 0.6-0.9 kg per week
Magel2-null mice; 0.1 mg/kg i.p., 3 hours post-dosing, vs vehicle-dosed Magel2-null mice
  increase of energy expenditure: 11%
Magel2-null mice; 0.1 mg/kg i.p., over the first 3 hours, P<0.05
  decrease of spontaneous food intake: ~75%
Magel2-null mice; 0.1 mg/kg i.p., overnight
  food intake suppression, duration: persisted throughout the dark cycle
Magel2-null mice; 0.1 mg/kg, P<0.05
  cumulative food intake: statistically significant decrease
Magel2-null mice; 0.1 mg/kg, food intake
  sensitivity compared with wildtype mice: much more sensitive than wildtype mice
Wildtype mice
  food intake: retained normal levels of food intake
db/db mice; 0.0544 mpk dose, end of the 4 hour time period
  suppression of food intake: about 80%
db/db mice; all concentrations
  suppression of food intake compared with wildtype mice: more profound suppression of foodintake than wildtype mice
db/db mice; [3]
  food intake: significantly decreased food intake
POMC deficient patient; 1 mg s.c. once daily, scale 0 to 10 (0=no hunger), baseline 9
  Likert hunger scale score: 5 points
POMC deficient patient; 1.5 mg dose, first treatment phase
  rate of weight loss: 2-3 kg per week
POMC deficient patient; after 26 weeks of treatment
  LDL: further reduced
  total cholesterol: further reduced
  total loss of body weight: 35.9 kg
  total loss of body weight, % of initial body weight: 23.2%
  triglycerides: further reduced
POMC deficient patient; [4]
  total loss of body weight: about 36 kg
  total loss of body weight, % of initial body weight: about 23%
POMC deficient patient; [5]
  HDL cholesterol: did not change
  LDL cholesterol: reduced
  total cholesterol: reduced
  triglycerides: did not change
POMC deficient patient; after the first 13 weeks of treatment
  total weight loss, % of initial body weight: 16.7%
POMC deficient patient; after the first 13 weeks of treatment, baseline 155 kg
  total weight loss: 25.8 kg
POMC deficient patient; after the first 13 weeks, baseline 49.8
  BMI: 41.5 kg/m2
POMC deficient patient; after the first 13 weeks, baseline 155 kg
  end body weight: 129.2 kg
POMC deficient patient; after the first 13 weeks, baseline +4.52
  BMI SDS: +3.86
POMC deficient patient; after the initiation of treatment
  quality of life: improved dramatically
POMC deficient patient; at 86 weeks of treatment
  loss of body weight: 60.5 kg
POMC deficient patient; [6]
  composition of the reduction of body weight: mainly due to a loss of body-fat mass
  lean body mass: not greatly altered
POMC deficient patient; despite severe weight loss
  resting energy expenditure (REE)/kg lean body mass: stayed relatively stable
POMC deficient patient; during all steps of dose escalation
  blood pressure: no increase
POMC deficient patient; during the study
  diastolic BP: significant decreases
  heart rate (HR): significant decreases
  systolic BP: significant decreases
POMC deficient patient; human, in vivo
  adverse event reported by the patient: infrequent dry mouth
  safety laboratories: no changes in safety laboratories of clinical concern
  tolerability of treatment: well tolerated
POMC deficient patient; initially, with low dosage
  changes in hunger: only little changes
  weight loss: moderate
POMC deficient patient; [7]
  Likert hunger score after treatment was stopped: 7 points
  weight regained after treatment was stopped: 4.8 kg
POMC deficient patient; oral glucose tolerance test, during the study
  blood glucose values (fasting and after glucose challenge): remained always in the normal range; also recorded: relatively stable
POMC deficient patient; overall, over the course of 26 weeks of treatment
  weight loss per week: 2-2.5 kg per week
POMC deficient patient; second treatment phase (1 mg for 4 weeks and 1.5 mg thereafter)
  rate of weight loss: 1-2 kg per week
POMC deficient patient; under setmelanotide treatment
  elevated insulin levels / insulin resistance (insulin sensitivity): improved significantly
POMC deficient patient; with loss of body-fat mass
  serum leptin concentrations: significant decrease
